Assay results from PubChem BioAssay AID1919009 (Molecular Pharmacology Branch, DTP, NCI, 2023).

Test system: K24384-001-R-PDC complex spheroid growth
Assay: Anticancer human tumor K24384-001-R-PDC patient-derived pancreatic adenocarcinoma cell line growth inhibition [AhR]
Conditions: for IC50: curve of first compound; for viability, T/C: stronger effect = lower value
Procedure, shortened: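 Agents were dosed in half-log steps down from roughly clinical Cmax, or from 10 microM where Cmax was unknown, alone and with AhR antagonists. Read-out: percent test/control growth of tumor spheroids containing HUVEC and MSC stromal cells.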

[1] = second compound 0.1 µM, first compound 0.0316 µM
[2] = second compound 0.1 µM, first compound 0.1 µM
[3] = second compound 0.316 µM, first compound 0.0316 µM
[4] = second compound 0.316 µM, first compound 0.1 µM
[5] = second compound 1 µM, first compound 0.0316 µM
[6] = second compound 1 µM, first compound 0.1 µM
[7] = second compound 3.16 µM, first compound 0.0316 µM
[8] = second compound 3.16 µM, first compound 0.1 µM
[9] = second compound 10 µM, first compound 0.0316 µM
[10] = second compound 10 µM, first compound 0.1 µM
[11] = second compound 0.1 µM, first compound 0.316 µM
[12] = second compound 0.1 µM, first compound 1 µM
[13] = second compound 0.1 µM, first compound 3.16 µM
[14] = second compound 0.1 µM, first compound 10 µM
[15] = second compound 0.316 µM, first compound 0.316 µM
[16] = second compound 0.316 µM, first compound 1 µM
[17] = second compound 0.316 µM, first compound 3.16 µM
[18] = second compound 0.316 µM, first compound 10 µM
[19] = second compound 1 µM, first compound 0.316 µM
[20] = second compound 1 µM, first compound 1 µM
[21] = second compound 1 µM, first compound 3.16 µM
[22] = second compound 1 µM, first compound 10 µM
[23] = second compound 3.16 µM, first compound 0.316 µM
[24] = second compound 3.16 µM, first compound 1 µM
[25] = second compound 3.16 µM, first compound 3.16 µM
[26] = second compound 3.16 µM, first compound 10 µM
[27] = second compound 10 µM, first compound 0.316 µM
[28] = second compound 10 µM, first compound 1 µM
[29] = second compound 10 µM, first compound 3.16 µM
[30] = second compound 10 µM, first compound 10 µM
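Throughout, for viability, T/C: percent of DMSO vehicle-treated spheroid viability set as 100%.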

SMILES: Cn1ncnc1C1c2n[nH]c(=O)c3cc(F)cc(c23)NC1c1ccc(F)cc1 (stereo not given) + Cc1cncc(-c2nc(NCCc3c[nH]c4ccccc34)c3ncn(C(C)C)c3n2)c1
- IC50 (second compound 0.1 µM): > 100 nM
- IC50 (second compound 0.316 µM): > 100 nM
- IC50 (second compound 1 µM): > 100 nM
- IC50 (second compound 3.16 µM): > 100 nM
- IC50 (second compound 10 µM): < 0.316 nM
- viability, T/C (second compound 0.1 µM, first compound 0.000316 µM): 94.1%
- viability, T/C (second compound 0.1 µM, first compound 0.001 µM): 93.8%
- viability, T/C (second compound 0.1 µM, first compound 0.00316 µM): 99.8%
- viability, T/C (second compound 0.1 µM, first compound 0.01 µM): 107%
- viability, T/C [1]: 94.7%
- viability, T/C [2]: 76.3%
- viability, T/C (second compound 0.316 µM, first compound 0.000316 µM): 98.1%
- viability, T/C (second compound 0.316 µM, first compound 0.001 µM): 108%
- viability, T/C (second compound 0.316 µM, first compound 0.00316 µM): 104%
- viability, T/C (second compound 0.316 µM, first compound 0.01 µM): 92.2%
- viability, T/C [3]: 99.4%
- viability, T/C [4]: 71.8%
- viability, T/C (second compound 1 µM, first compound 0.000316 µM): 104%
- viability, T/C (second compound 1 µM, first compound 0.001 µM): 110%
- viability, T/C (second compound 1 µM, first compound 0.00316 µM): 105%
- viability, T/C (second compound 1 µM, first compound 0.01 µM): 101%
- viability, T/C [5]: 74.3%
- viability, T/C [6]: 66.8%
- viability, T/C (second compound 3.16 µM, first compound 0.000316 µM): 101%
- viability, T/C (second compound 3.16 µM, first compound 0.001 µM): 86.7%
- viability, T/C (second compound 3.16 µM, first compound 0.00316 µM): 104%
- viability, T/C (second compound 3.16 µM, first compound 0.01 µM): 64.8%
- viability, T/C [7]: 69.8%
- viability, T/C [8]: 71.5%
- viability, T/C (second compound 10 µM, first compound 0.000316 µM): 15.3%
- viability, T/C (second compound 10 µM, first compound 0.001 µM): 12%
- viability, T/C (second compound 10 µM, first compound 0.00316 µM): 14.2%
- viability, T/C (second compound 10 µM, first compound 0.01 µM): 11.5%
- viability, T/C [9]: 12.1%
- viability, T/C [10]: 14.5%

SMILES: COc1ccc([C@@H](O)c2cc(-c3ncnc4cc(N5CCOCC5)ccc34)c(F)cc2Cl)nn1 + Cc1ccccc1N=Nc1ccc(NC(=O)c2ccnn2C)c(C)c1
- IC50 (second compound 0.1 µM): 5910 nM
- IC50 (second compound 0.316 µM): 4850 nM
- IC50 (second compound 1 µM): 3610 nM
- IC50 (second compound 3.16 µM): 2540 nM
- IC50 (second compound 10 µM): 3680 nM
- viability, T/C [1]: 99.7%
- viability, T/C [2]: 99%
- viability, T/C [11]: 82.2%
- viability, T/C [12]: 66.7%
- viability, T/C [13]: 62.5%
- viability, T/C [14]: 42.1%
- viability, T/C [3]: 99.3%
- viability, T/C [4]: 90.5%
- viability, T/C [15]: 80.4%
- viability, T/C [16]: 82%
- viability, T/C [17]: 53.8%
- viability, T/C [18]: 37.2%
- viability, T/C [5]: 96.1%
- viability, T/C [6]: 95.7%
- viability, T/C [19]: 86.1%
- viability, T/C [20]: 70.8%
- viability, T/C [21]: 51.9%
- viability, T/C [22]: 37.8%
- viability, T/C [7]: 99.9%
- viability, T/C [8]: 96.6%
- viability, T/C [23]: 81%
- viability, T/C [24]: 64.2%
- viability, T/C [25]: 47.2%
- viability, T/C [26]: 34.9%
- viability, T/C [9]: 97%
- viability, T/C [10]: 103%
- viability, T/C [27]: 82.5%
- viability, T/C [28]: 78.7%
- viability, T/C [29]: 50.9%
- viability, T/C [30]: 32.7%

SMILES: O=C(C=Cc1cccc(S(=O)(=O)Nc2ccccc2)c1)NO + Cc1ccccc1N=Nc1ccc(NC(=O)c2ccnn2C)c(C)c1
- IC50 (second compound 0.1 µM): 2350 nM
- IC50 (second compound 0.316 µM): 2440 nM
- IC50 (second compound 1 µM): 2260 nM
- IC50 (second compound 3.16 µM): 2270 nM
- IC50 (second compound 10 µM): 2560 nM
- viability, T/C [1]: 137%
- viability, T/C [2]: 128%
- viability, T/C [11]: 126%
- viability, T/C [12]: 92.2%
- viability, T/C [13]: 35.2%
- viability, T/C [14]: 6.57%
- viability, T/C [3]: 135%
- viability, T/C [4]: 144%
- viability, T/C [15]: 121%
- viability, T/C [16]: 107%
- viability, T/C [17]: 32.6%
- viability, T/C [18]: 6.91%
- viability, T/C [5]: 136%
- viability, T/C [6]: 135%
- viability, T/C [19]: 126%
- viability, T/C [20]: 87%
- viability, T/C [21]: 35.1%
- viability, T/C [22]: 6.47%
- viability, T/C [7]: 102%
- viability, T/C [8]: 127%
- viability, T/C [23]: 123%
- viability, T/C [24]: 86.5%
- viability, T/C [25]: 35.9%
- viability, T/C [26]: 5.9%
- viability, T/C [9]: 128%
- viability, T/C [10]: 128%
- viability, T/C [27]: 115%
- viability, T/C [28]: 89%
- viability, T/C [29]: 41.1%
- viability, T/C [30]: 7.02%

SMILES: CC1COCCN1c1cc(C2(S(C)(=N)=O)CC2)nc(-c2ccnc3[nH]ccc23)n1 (stereo not given) + Cc1cncc(-c2nc(NCCc3c[nH]c4ccccc34)c3ncn(C(C)C)c3n2)c1
- IC50 (second compound 0.1 µM): 3220 nM
- IC50 (second compound 0.316 µM): 4430 nM
- IC50 (second compound 1 µM): 4740 nM
- IC50 (second compound 3.16 µM): 1270 nM
- IC50 (second compound 10 µM): < 31.6 nM
- viability, T/C [1]: 97.7%
- viability, T/C [2]: 105%
- viability, T/C [11]: 105%
- viability, T/C [12]: 84.1%
- viability, T/C [13]: 51.2%
- viability, T/C [14]: 32.2%
- viability, T/C [3]: 94.7%
- viability, T/C [4]: 102%
- viability, T/C [15]: 96.3%
- viability, T/C [16]: 87.3%
- viability, T/C [17]: 58.8%
- viability, T/C [18]: 29.1%
- viability, T/C [5]: 116%
- viability, T/C [6]: 113%
- viability, T/C [19]: 118%
- viability, T/C [20]: 95%
- viability, T/C [21]: 61.1%
- viability, T/C [22]: 31.1%
- viability, T/C [7]: 80.6%
- viability, T/C [8]: 74.8%
- viability, T/C [23]: 70%
- viability, T/C [24]: 52%
- viability, T/C [25]: 37.8%
- viability, T/C [26]: 25.9%
- viability, T/C [9]: 10.3%
- viability, T/C [10]: 11.3%
- viability, T/C [27]: 11.8%
- viability, T/C [28]: 11.8%
- viability, T/C [29]: 8.29%
- viability, T/C [30]: 10.9%
